The target in this assay is AcsD (Dickeya chrysanthemi, UniProt Q93AT8). In words: X-ray crystal structure of the complex. In kind it is binding. The following applies: co-crystal with sulfate and citrate; ATP site.

Each structure is given as a SMILES string.

For `Nc1ncnc2c1ncn2[C@@H]1O[C@H](CO)[C@@H](O)[C@H]1O` [adenosine], the “X-ray crystal structure of the complex” value is listed as “adenosine binds in the same pocket as seen in the ATP structure”.

The values are drawn from publication PMC2644304 (Nature chemical biology, 2009).
